Results from ChEMBL document CHEMBL1629460, “Image-based high-throughput drug screening targeting the intracellular stage of Trypanosoma cruzi, the agent of Chagas' disease” (Antimicrob Agents Chemother, 2010).

Experiments:
[1] = Cytotoxicity against BESM cells after 88 hrs by HTS assay; type: ADME, cell-based; conditions: Bos taurus
[2] = test system: Trypanosoma cruzi; test: Antitrypanosomal activity against Trypanosoma cruzi amastigotes infected in BESM cells measured after 88 hrs postinfection by HTS assay; type: functional, organism-based
[3] = Selectivity window, ratio of EC50 for BESM cells to EC50 for Trypanosoma cruzi amastigotes infected in BESM cells; set-up: reference not given here

SMILES | EC50 [1] | EC50 [2] | Ratio EC50 [3]
COc1cc(N)[nH]c2nc(-c3ccc(F)cc3)c(-c3ccncc3)c1-2 | > 50 µM | 5 µM | >10
Cc1c(C)c2c(c(C)c1O)CCC(C)(CN1CCN(c3cc(N4CCCC4)nc(N4CCCC4)n3)CC1)O2 (stereo not drawn) | > 50 µM | 17 µM | >2.9
CCCCCCCCCCCCC/C=C/[C@@H](O)[C@H](CO)NC(=O)CCCCCCC | 11 µM | 13 µM | 0.8
Cc1c(O)cccc1C(=O)N[C@@H](CSc1ccccc1)[C@H](O)CN1C[C@H]2CCCC[C@H]2C[C@H]1C(=O)NC(C)(C)C | 32 µM | 12 µM | 2.7
O=C(Nc1ccc(Cl)c(Cl)c1)c1cc(Cl)cc(Cl)c1O [3,3',4',5-TETRACHLOROSALICYLANILIDE] | 26 µM | 8 µM | 3.3
CC[C@H](C)[C@H]1O[C@]2(C=C[C@@H]1C)C[C@@H]1C[C@@H](C/C=C(\C)[C@@H](O[C@H]3C[C@H](OC)[C@@H](O[C@H]4C[C@H](OC)[C@@H](O)[C@H](C)O4)[C@H](C)O3)[C@@H](C)/C=C/C=C3\CO[C@@H]4[C@H](O)C(C)=C[C@@H](C(=O)O1)[C@]34O)O2.CO[C@H]1C[C@H](O[C@H]2[C@H](C)O[C@@H](O[C@@H]3/C(C)=C/C[C@@H]4C[C@@H](C[C@]5(C=C[C@H](C)[C@@H](C(C)C)O5)O4)OC(=O)[C@@H]4C=C(C)[C@@H](O)[C@H]5OC/C(=C\C=C\[C@@H]3C)[C@]54O)C[C@@H]2OC)O[C@@H](C)[C@@H]1O [ABAMECTIN] | 12 µM | 4 µM | 3
Cc1ccc(/N=C/N(C)/C=N/c2ccc(C)cc2C)c(C)c1 [AMITRAZ] | 33 µM | 16 µM | 2.1
CN(C)CCC=C1c2ccccc2CCc2ccccc21 [AMITRIPTYLINE] | 23 µM | 12 µM | 1.9
CN1CCCC(n2nc(Cc3ccc(Cl)cc3)c3ccccc3c2=O)CC1 (stereo not drawn) [AZELASTINE] | 49 µM | 1 µM | 49
CN1[C@@H]2CC[C@H]1C[C@@H](OC(c1ccccc1)c1ccccc1)C2 [BENZTROPINE] | 46 µM | 17 µM | 2.7
c1ccc(Cn2ccnc2)cc1 [BENZYLIMIDAZOLE] | > 50 µM | 35 µM | >1.4
Cc1cc2c(OCC(CNC(C)(C)C)OC(=O)c3ccccc3)cccc2[nH]1 (stereo not drawn) [BOPINDOLOL] | > 50 µM | 40 µM | >1.3
COc1ccccc1OCCNCC(O)COc1cccc2[nH]c3ccccc3c12 (stereo not drawn) [CARVEDILOL] | 31 µM | 8 µM | 3.9
CCC(=O)O[C@]1(C(=O)CCl)[C@@H](C)C[C@H]2[C@@H]3CCC4=CC(=O)C=C[C@]4(C)[C@@]3(F)[C@@H](O)C[C@@]21C [CLOBETASOL PROPIONATE] | 41 µM | 25 µM | 1.6
CN(C)CCCN1c2ccccc2CCc2ccc(Cl)cc21 [CLOMIPRAMINE] | > 50 µM | 8 µM | >6.3
C[C@@H]1C[C@@H]([C@H](O)CC2CC(=O)NC(=O)C2)C(=O)[C@@H](C)C1 [CYCLOHEXIMIDE] | > 50 µM | < 0.4 µM | >125
CC(=O)O[C@]1(C(C)=O)CC[C@H]2[C@@H]3C=C(Cl)C4=CC(=O)[C@@H]5C[C@@H]5[C@]4(C)[C@H]3CC[C@@]21C [CYPROTERONE ACETATE] | > 50 µM | 32 µM | >1.6
CC(C)[C@@]1(NC(=O)[C@@H]2C[C@@H]3c4cccc5[nH]cc(c45)C[C@H]3N(C)C2)O[C@@]2(O)[C@@H]3CCCN3C(=O)[C@H](Cc3ccccc3)N2C1=O.CS(=O)(=O)O [DIHYDROERGOCRISTINE MESYLATE] | 47 µM | 5 µM | 9.4
CC(=O)O[C@@]12CO[C@@H]1C[C@H](O)[C@@]1(C)C(=O)[C@H](O)C3=C(C)[C@@H](OC(=O)[C@H](O)[C@@H](NC(=O)OC(C)(C)C)c4ccccc4)C[C@@](O)([C@@H](OC(=O)c4ccccc4)[C@H]21)C3(C)C.O.O.O [DOCETAXEL] | 44 µM | < 0.8 µM | >56
COc1cc2nc(N3CCN(C(=O)C4COc5ccccc5O4)CC3)nc(N)c2cc1OC (stereo not drawn) [DOXAZOSIN] | 27 µM | 12 µM | 2.3
CCCCOc1ccc(C(=O)CCN2CCCCC2)cc1.Cl [DYCLONINE HYDROCHLORIDE] | 36 µM | 15 µM | 2.4
CC(C)[C@H]1C(=O)N2CCC[C@H]2[C@]2(O)O[C@](NC(=O)[C@@H]3C=C4c5cccc6[nH]cc(c56)C[C@H]4N(C)C3)(C(C)C)C(=O)N12 [ERGOCORNINE] | 43 µM | 18 µM | 2.4
CNCCC(Oc1ccc(C(F)(F)F)cc1)c1ccccc1 (stereo not drawn) [FLUOXETINE] | 16 µM | 7 µM | 2.3
OCCN1CCN(CCCN2c3ccccc3Sc3ccc(C(F)(F)F)cc32)CC1 [FLUPHENAZINE] | 21 µM | 4 µM | 5.3
O=C1OCCN1/N=C/c1ccc([N+](=O)[O-])o1 [FURAZOLIDONE] | > 50 µM | < 0.4 µM | >125
C[C@H]([C@](O)(Cn1cncn1)c1ccc(F)cc1F)S(C)(=O)=O [GENACONAZOLE] | > 50 µM | 18 µM | >2.8

SMILES | EC50 [1] | EC50 [2] | Ratio EC50 [3]
O=C(CCCN1CCC(O)(c2ccc(Cl)cc2)CC1)c1ccc(F)cc1 [HALOPERIDOL] | 33 µM | 7 µM | 4.7
CN1CCCN(C(c2ccccc2)c2ccc(Cl)cc2)CC1 (stereo not drawn) [HOMOCHLORCYCLIZINE] | 13 µM | 12 µM | 1.1
Cc1ccc(NC(=O)c2ccc(CN3CCN(C)CC3)cc2)cc1Nc1nccc(-c2cccnc2)n1 [IMATINIB] | 32 µM | 9 µM | 3.6
C=C(C)[C@H]1CN[C@H](C(=O)O)[C@H]1CC(=O)O [KAINIC ACID] | 13 µM | 3 µM | 4.3
COc1ccc(CN2CCN(C(c3ccc(F)cc3)c3ccc(F)cc3)CC2)c(OC)c1OC [LOMERIZINE] | 22 µM | 9 µM | 2.4
CN(C)C(=O)C(CCN1CCC(O)(c2ccc(Cl)cc2)CC1)(c1ccccc1)c1ccccc1 [LOPERAMIDE] | 12 µM | 3 µM | 4
CCOC(=O)N1CCC(=C2c3ccc(Cl)cc3CCc3cccnc32)CC1 [LORATADINE] | 17 µM | 9 µM | 1.9
CN1C[C@H](CNC(=O)OCc2ccccc2)C[C@@H]2c3cccc4c3c(cn4C)C[C@H]21 [METERGOLINE] | 18 µM | 4 µM | 4.5
COc1c(C)c2c(c(O)c1C/C=C(\C)CCC(=O)OCCN1CCOCC1)C(=O)OC2 [MYCOPHENOLATE MOFETIL] | > 50 µM | 7 µM | >7.1
CCN(CC)CCOCCC1=CCC2CC1C2(C)C (stereo not drawn) [MYRTECAINE] | 24 µM | 14 µM | 1.7
COc1ccccc1N1CCN(CC(O)COc2cccc3ccccc23)CC1 (stereo not drawn) [NAFTOPIDIL] | 18 µM | 11 µM | 1.6
C=CCN1CC[C@]23c4c5ccc(O)c4O[C@H]2/C(=N/N=C2\CC[C@@]4(O)[C@H]6Cc7ccc(O)c8c7[C@@]4(CCN6CC=C)[C@H]2O8)CC[C@@]3(O)[C@H]1C5 [NALOXONAZINE] | 16 µM | 17 µM | 0.9
CCc1nn(CCCN2CCN(c3cccc(Cl)c3)CC2)c(=O)n1CCOc1ccccc1 [NEFAZODONE] | 15 µM | 8 µM | 1.9
O=C(N/N=C/c1ccc([N+](=O)[O-])o1)c1cc([N+](=O)[O-])cc([N+](=O)[O-])c1O [NIFURSOL] | > 50 µM | 15 µM | >3.3
NC(=O)N/N=C/c1ccc([N+](=O)[O-])o1 [NITROFURAZONE] | > 50 µM | 8 µM | >6.3
C#C[C@]1(OC(C)=O)CC[C@H]2[C@@H]3CCC4=CC(=O)CC[C@@H]4[C@H]3CC[C@@]21C [NORETHINDRONE ACETATE] | 28 µM | 17 µM | 1.6
OCCN1CCN(CCCN2c3ccccc3Sc3ccc(Cl)cc32)CC1 [PERPHENAZINE] | 13 µM | 5 µM | 2.6
c1ccc2c(c1)Nc1ccccc1S2 [PHENOTHIAZINE] | 26 µM | 6 µM | 4.3
COc1cc2nc(N3CCN(C(=O)c4ccco4)CC3)nc(N)c2cc1OC [PRAZOSIN] | 16 µM | 12 µM | 1.3
CN(C)CCCN1c2ccccc2Sc2ccccc21 [PROMAZINE] | 33 µM | 13 µM | 2.5
O=C(c1ccc(OCCN2CCCCC2)cc1)c1c(-c2ccc(O)cc2)sc2cc(O)ccc12 [RALOXIFENE] | 22 µM | 10 µM | 2.2
CC(C)CC(N(C)C)C1(c2ccc(Cl)cc2)CCC1 (stereo not drawn) [SIBUTRAMINE] | 10 µM | 8 µM | 1.3
Nc1c2c(nc3ccccc13)CCCC2 [TACRINE] | > 50 µM | 24 µM | >2.1
CC(C)N1CCN(c2ccc(OCC3COC(Cn4cncn4)(c4ccc(Cl)cc4Cl)O3)cc2)CC1 (stereo not drawn) [TERCONAZOLE] | 24 µM | < 0.4 µM | >60
C[C@@H]1C[C@H]2[C@@H]3CCC4=CC(=O)C=C[C@]4(C)C3=CC[C@]2(C)[C@H]1C(=O)CN1CCN(c2cc(N3CCCC3)nc(N3CCCC3)n2)CC1 [TIRILAZAD] | > 50 µM | 28 µM | >1.8
